We go through 20 compounds from PubChem BioAssay AID328 (DTP/NCI, 2004).

The structures appear in SMILES notation. Values joined by “and” are separate entries in the source; they are usually repeats but may differ in a detail not shown here. Equal values may be shown once. Toxic doses and inconclusive results are not listed.

For this test, the system named is BDF1 mice, P388 leukemia ip, median survival T/C. Nature of the test: NCI In Vivo Anticancer Drug Screen. Data for tumor model P388 Leukemia (intraperitoneal) in B6D2F1 (BDF1) mice. The settings on record: endpoint: median survival time, higher = longer survival. An outline of the steps: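 T/C = treated-group survival ÷ vehicle-control survival; tumour transplanted into mice before dosing.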

The mark [1] stands for this setting: dose: 200.0 mg/kg/injection, schedule: Q04DX003 (ip), vehicle: saline with Tween-80.
[2] abbreviates: dose: 400.0 mg/kg/injection, schedule: Q04DX003 (ip), vehicle: saline with Tween-80.
The mark [3] stands for this setting: dose: 50.0 mg/kg/injection, schedule: Q01DX009 (ip), vehicle: saline with Tween-80.
[4] abbreviates: dose: 100.0 mg/kg/injection, schedule: Q01DX009 (ip), vehicle: saline with Tween-80.
The mark [5] stands for this setting: dose: 200.0 mg/kg/injection, schedule: Q01DX009 (ip), vehicle: saline with Tween-80.
Setting [6] is: dose: 25.0 mg/kg/injection, schedule: Q01DX009 (ip), vehicle: saline with Tween-80.
[7] abbreviates: dose: 100.0 mg/kg/injection, schedule: Q04DX003 (ip), vehicle: saline with Tween-80.

As for `CCCCN(C)N=Nc1ccc(CCC(=O)OCC)cc1`, the T/C (dose: 78.0 mg/kg/injection, schedule: Q04DX003 (ip), vehicle: saline with Tween-80) is 100 % of control; the T/C (dose: 118.0 mg/kg/injection, schedule: Q04DX003 (ip), vehicle: saline with Tween-80) is 118 % of control; the T/C (dose: 177.0 mg/kg/injection, schedule: Q04DX003 (ip), vehicle: saline with Tween-80) was 104 % of control; the T/C under setting [1] was 118 % of control; the T/C under setting [2] was 150 % of control and 168 % of control; the T/C (dose: 600.0 mg/kg/injection, schedule: Q04DX003 (ip), vehicle: saline with Tween-80) is 184 % of control.

`S=C1N(c2ccccc2)CN(C2CCCCC2)CN1c1ccccc1`: the T/C under setting [3] was 89 % of control, the T/C under setting [4] is 90 % of control and the T/C under setting [5] is 89 % of control.

Turning to `Cc1ccc(C[n+]2cccc3c([N+](=O)[O-])cccc32)cc1`, the T/C is 108 % of control (dose: 12.5 mg/kg/injection, schedule: Q01DX009 (ip), vehicle: saline with Tween-80); 103 % of control under setting [6]; 113 % of control under setting [3].

On to `CS(=O)(=O)OCCCl`, for which the T/C was 105 % of control and 120 % of control (dose: 18.8 mg/kg/injection, schedule: Q01DX010 (ip), vehicle: saline); 100 % of control and 110 % of control (dose: 37.5 mg/kg/injection, schedule: Q01DX010 (ip), vehicle: saline); 100 % of control (dose: 75.0 mg/kg/injection, schedule: Q01DX010 (ip), vehicle: saline).

Regarding `CC([N+](=O)[O-])S(=O)(=O)c1ccc(Cl)cc1` (centres undefined), the T/C (dose: 50.0 mg/kg/injection, schedule: Q01DX001 (ip), vehicle: saline sonified) is 95 % of control; the T/C (dose: 100.0 mg/kg/injection, schedule: Q01DX001 (ip), vehicle: saline sonified) was 100 % of control; the T/C (dose: 200.0 mg/kg/injection, schedule: Q01DX001 (ip), vehicle: saline sonified) is 100 % of control.

In the case of `c1ccc(Nc2n[n+](-c3ccccc3)no2)cc1`, the T/C under setting [6] was 105 % of control; the T/C under setting [3] was 101 % of control; the T/C under setting [4] is 101 % of control and 104 % of control; the T/C under setting [7] was 107 % of control; the T/C under setting [5] is 88 % of control; the T/C under setting [1] was 106 % of control. Moreover, the T/C under setting [2] is 102 % of control.

Consider `O=C(O)CC(NC(=O)OCc1ccccc1)C(=O)OCc1ccccc1` (centres undefined), for which the T/C under setting [3] is 92 % of control; the T/C under setting [4] is 111 % of control; the T/C under setting [7] was 104 % of control; the T/C under setting [5] was 111 % of control; the T/C under setting [1] was 113 % of control; the T/C (dose: 400.0 mg/kg/injection, schedule: Q01DX009 (ip), vehicle: saline with Tween-80) is 100 % of control. Moreover, the T/C under setting [2] is 90 % of control.

As for `COc1cc2c(cc1OC)C(NC(C)=O)N(C)c1c-2ccc2cc3c(cc12)OCO3` (centres undefined), the T/C runs as follows: (dose: 40.0 mg/kg/injection, schedule: Q01DX009 (ip), vehicle: saline) 168 % of control; (dose: 80.0 mg/kg/injection, schedule: Q01DX009 (ip), vehicle: saline) 104 % of control; (dose: 120.0 mg/kg/injection, schedule: Q01DX009 (ip), vehicle: saline) 100 % of control.

`Cc1ccc(NC(=O)c2ccc(C)c([N+](=O)[O-])c2)c(C)c1`: the T/C (dose: 100.0 mg/kg/injection, schedule: Q01DX008 (sc), vehicle: olive oil, sesame oil, peanut oil) was 87 % of control; the T/C (dose: 100.0 mg/kg/injection, schedule: Q04DX003 (sc), vehicle: olive oil, sesame oil, peanut oil) is 88 % of control; the T/C (dose: 200.0 mg/kg/injection, schedule: Q01DX008 (sc), vehicle: olive oil, sesame oil, peanut oil) was 100 % of control; the T/C (dose: 200.0 mg/kg/injection, schedule: Q04DX003 (sc), vehicle: olive oil, sesame oil, peanut oil) is 88 % of control; the T/C (dose: 400.0 mg/kg/injection, schedule: Q01DX008 (sc), vehicle: olive oil, sesame oil, peanut oil) is 87 % of control; the T/C (dose: 400.0 mg/kg/injection, schedule: Q04DX003 (sc), vehicle: olive oil, sesame oil, peanut oil) was 92 % of control.

Take `COc1cc(C)c(C2NC(=O)c3ccccc3N2)cc1C` (centres undefined): the T/C (dose: 200.0 mg/kg/injection, schedule: Q01DX009 (ip), vehicle: Klucel (hydroxypropylcellulose) (HPC)) is 155 % of control and 170 % of control; the T/C (dose: 265.0 mg/kg/injection, schedule: Q01DX009 (ip), vehicle: Klucel (hydroxypropylcellulose) (HPC)) was 150 % of control.

As to `O=S1(=O)C=CCC2C3CCC(C3)C21` (centres undefined), the T/C (dose: 100.0 mg/kg/injection, schedule: Q01DX001 (ip), vehicle: saline with Tween-80) is 100 % of control and the T/C (dose: 200.0 mg/kg/injection, schedule: Q01DX001 (ip), vehicle: saline with Tween-80) was 106 % of control.

Consider `O=C1CCC(=O)N1C1c2ccccc2Oc2ccccc21`, for which the T/C (dose: 100.0 mg/kg/injection, schedule: Q01DX001 (ip), vehicle: other) was 90 % of control; the T/C (dose: 200.0 mg/kg/injection, schedule: Q01DX001 (ip), vehicle: other) is 90 % of control; the T/C (dose: 400.0 mg/kg/injection, schedule: Q01DX001 (ip), vehicle: other) is 113 % of control.

In the case of `CCCCCCCCCC[N+]1([O-])CCCCC1`, the T/C (dose: 12.5 mg/kg/injection, schedule: Q01DX009 (ip), vehicle: saline) was 98 % of control; the T/C (dose: 25.0 mg/kg/injection, schedule: Q01DX009 (ip), vehicle: saline) was 91 % of control; the T/C (dose: 50.0 mg/kg/injection, schedule: Q01DX009 (ip), vehicle: saline) was 94 % of control.

Consider `O=N[O-].O=N[O-].O=N[O-].[Co+3].[NH-]CC[N-]CC[NH-]`, for which the T/C under setting [3] was 111 % of control.

With `CC1OC(OC2C(O)C(O)C(O)C(O)C2O)C(N)CC1N=C(N)C(=O)O` (centres undefined), the T/C reads like this: (dose: 100.0 mg/kg/injection, schedule: Q01DX009 (ip), vehicle: saline) 91 % of control; (dose: 200.0 mg/kg/injection, schedule: Q01DX009 (ip), vehicle: saline) 100 % of control; (dose: 400.0 mg/kg/injection, schedule: Q01DX009 (ip), vehicle: saline) 116 % of control.

As to `CC1=NN(c2ccccc2)C(=O)C1C(=S)SC1CC(=O)NC1=O` (centres undefined), the T/C is, setting by setting: under setting [3], 117 % of control; under setting [4], 103 % of control; under setting [5], 108 % of control.

Consider `CCOC(=O)C(C(=O)COC)C(=O)OCC`, for which the T/C runs as follows: (dose: 12.5 mg/kg/injection, schedule: Q04DX003 (ip), vehicle: water) 100 % of control; (dose: 25.0 mg/kg/injection, schedule: Q04DX003 (ip), vehicle: water) 108 % of control; (dose: 50.0 mg/kg/injection, schedule: Q04DX003 (ip), vehicle: water) 105 % of control; (dose: 100.0 mg/kg/injection, schedule: Q04DX003 (ip), vehicle: water) 115 % of control; (dose: 200.0 mg/kg/injection, schedule: Q04DX003 (ip), vehicle: water) 115 % of control.

As to `O=C(Nc1cccc(C2=NCCCN2)c1)Nc1ccc(NC(=O)Nc2cccc(C3=NCCCN3)c2)c(Cl)c1`, the T/C was 227 % of control (dose: 10.0 mg/kg/injection, schedule: Q01DX009 (ip), vehicle: saline with Tween-80); 182 % of control (dose: 11.0 mg/kg/injection, schedule: Q04DX003 (ip), vehicle: saline with Tween-80); 217 % of control (dose: 17.0 mg/kg/injection, schedule: Q04DX003 (ip), vehicle: saline with Tween-80); 204 % of control (dose: 20.0 mg/kg/injection, schedule: Q01DX009 (ip), vehicle: saline with Tween-80); 195 % of control and 209 % of control (dose: 26.0 mg/kg/injection, schedule: Q04DX003 (ip), vehicle: saline with Tween-80); 272 % of control (dose: 40.0 mg/kg/injection, schedule: Q04DX003 (ip), vehicle: saline with Tween-80). Moreover, the T/C (dose: 60.0 mg/kg/injection, schedule: Q04DX003 (ip), vehicle: saline with Tween-80) is 272 % of control.

With `COc1ccccc1/C=N/NC(=O)c1ccccc1`, the T/C is, setting by setting: under setting [7], 100 % of control; under setting [1], 104 % of control; under setting [2], 104 % of control.

With `C[C@]12CCC(=O)C=C1CC[C@@H]1[C@@H]2[C@@H](O)C[C@@]2(C)[C@H]1CC[C@]2(O)C(=O)CO`, the T/C reads like this: (dose: 6.25 mg/kg/injection, schedule: Q01DX010 (sc), vehicle: steriod suspending solution) 100 % of control; (dose: 12.5 mg/kg/injection, schedule: Q01DX010 (sc), vehicle: steriod suspending solution) 100 % of control; (dose: 25.0 mg/kg/injection, schedule: Q01DX010 (sc), vehicle: steriod suspending solution) 110 % of control; (dose: 50.0 mg/kg/injection, schedule: Q01DX010 (sc), vehicle: steriod suspending solution) 120 % of control; (dose: 100.0 mg/kg/injection, schedule: Q01DX010 (sc), vehicle: steriod suspending solution) 115 % of control and 120 % of control; (dose: 200.0 mg/kg/injection, schedule: Q01DX010 (sc), vehicle: steriod suspending solution) 110 % of control.
